As usually defined, the IC50 is the midpoint of a concentration-inhibition curve. Low readings indicate greater potency in that assay, high ones weaker potency in that assay.

The text below walks through data of patent US20250127906A1, “SMALL-MOLECULE DEGRADERS OF CDK8 AND CDK19” (University of South Carolina, priority 2021, published 2025).

Assay [1] has as its target T1, CDK8 (Homo sapiens, UniProt P49336). As to the kind of experiment: CDK8 degradation in Loucy T-cell leukemia cells lacking Cyclin C. The class given is cell-based. The arrangement: endogenous in cells; host or cells: Loucy. The note with it: Loucy cells (lacking CCNC), 24 hr treatment. An excerpt: (§1) This cell line, however, is unique in lacking Cyclin C (CCNC), the binding partner of CDK8/19. To test if the absence of CDK8-bound CCNC was responsible for the loss of IA7843 CDK8-degrading activity, we have tested the effect of IA7843 on a derivative of HEK-293cells with CRISPR-mediated knockout of CCNC.
Target sequence in this assay (P49336 whole entry): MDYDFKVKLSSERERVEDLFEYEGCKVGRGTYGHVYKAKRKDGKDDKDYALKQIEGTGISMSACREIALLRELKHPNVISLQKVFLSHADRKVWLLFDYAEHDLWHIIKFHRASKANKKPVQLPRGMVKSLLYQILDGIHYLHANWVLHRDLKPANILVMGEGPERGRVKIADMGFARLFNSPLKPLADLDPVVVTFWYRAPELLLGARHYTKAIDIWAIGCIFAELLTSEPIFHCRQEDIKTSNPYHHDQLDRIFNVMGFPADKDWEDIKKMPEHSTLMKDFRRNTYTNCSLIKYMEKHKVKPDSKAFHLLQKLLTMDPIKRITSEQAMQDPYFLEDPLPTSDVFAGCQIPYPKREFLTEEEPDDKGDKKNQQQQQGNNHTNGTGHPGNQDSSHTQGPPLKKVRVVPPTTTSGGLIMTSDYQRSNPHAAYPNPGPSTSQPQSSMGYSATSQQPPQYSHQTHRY

Assay [2] relates to pS727 STAT1 and total STAT1. The assay is described as follows: pS727 STAT1 and total STAT1 in CT26 tumors in Balb/c mice. The note with it: oral gavage 20 mg/kg, 2, 8 or 24 hrs after dosing. The class given is in vivo. As for the experimental part:
CT26 cells were injected subcutaneously into syngeneic Balb/c female mice and allowed to grow to 150˜200 mm^3. Tumor-bearing mice then received PROTACs IA7882 or IA7886 by oral gavage at 20 mg/kg in 30% propylene glycol/70% PEG-400 vehicle. Tumors were collected 2, 8 or 24 hrs after dosing and used to measure protein levels of CDK8, pS727 STAT1 and total STAT1 (by western blotting) and mRNA expression of CCL12, a gene that is inhibited by different CDK8/19 inhibitors in CT26 tumors in vivo (by QPCR).

Assay [3] deals with CDK19 (Homo sapiens, UniProt Q9BWU1). The assay is described as follows: CDK19 degradation in Loucy T-cell leukemia cells lacking Cyclin C. The class given is cell-based. The arrangement: endogenous in cells; host or cells: Loucy. The note with it: Loucy cells (lacking CCNC), 24 hr treatment.
Chain of CDK19 (Homo sapiens, UniProt Q9BWU1) (Q9BWU1 whole entry): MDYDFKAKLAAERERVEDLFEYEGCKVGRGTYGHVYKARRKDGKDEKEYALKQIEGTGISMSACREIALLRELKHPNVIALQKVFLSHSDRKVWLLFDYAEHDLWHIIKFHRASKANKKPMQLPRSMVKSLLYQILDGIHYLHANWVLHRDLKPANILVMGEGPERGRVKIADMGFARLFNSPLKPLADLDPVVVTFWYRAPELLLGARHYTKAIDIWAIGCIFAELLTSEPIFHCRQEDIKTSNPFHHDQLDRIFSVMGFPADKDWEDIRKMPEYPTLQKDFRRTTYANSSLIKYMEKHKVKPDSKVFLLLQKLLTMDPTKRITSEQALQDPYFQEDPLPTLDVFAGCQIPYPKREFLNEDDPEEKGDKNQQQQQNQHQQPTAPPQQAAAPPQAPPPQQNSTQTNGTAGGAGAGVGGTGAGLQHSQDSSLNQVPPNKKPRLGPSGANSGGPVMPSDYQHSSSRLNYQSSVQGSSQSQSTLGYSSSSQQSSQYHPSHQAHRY
Source text: as §1

The test system of assay [4] is Jurkat cells. The assay is described as follows: Long-term growth of Jurkat cells under continuous treatment. The class given is cell-based, human. The following applies: 300 nM continuous. As for the experimental part: The anti-proliferative effects of a PROTAC and a kinase inhibitor were compared in leukemia cell lines. In the long-term treatment experiment shown in FIG. 11A, Jurkat cells (0.1 million cells) were continuously treated with vehicle control (0.1% DMSO), 300 nM BI-1347 or 300 nM IA7886 for 53 days (each condition in biological triplicates). Every 7-8 days, live cells were counted using BioRAD TC20 Automated Cell Counter with trypan blue staining: 0.1 million live cells were passaged to a new T25 flask to propagate under the same treatment conditions. The survival fraction was calculated by dividing the accumulated number of drug-treated cells with the accumulated number of vehicle-treated cells. […] This sustained inhibition property of PROTAC was also observed in MV4-11, a leukemia cell line highly sensitive to CDK8/19 kinase inhibitors.

Assay [5] relates to SK-MM-2 cells. As to the kind of experiment: SK-MM-2 multiple myeloma cell growth over 20 days continuous treatment. The following applies: BI1347 200 nM, Senexin C 1 μM, IA7886 200 nM, IA7843 1 μM. Format: cell-based. As for the experimental part:
The following CDK8/19 kinase inhibitors were tested for their effects on MM cell lines over 20 days continuous treatment: CDK8/19 kinase inhibitors BI1347 (200 nM) and Senexin C (1 μM), BI1347-derived PROTAC IA7886 (200 nM) and Senexin C-derived PROTAC IA7843 (1 μM). 1-4 million cells were treated with vehicle control (0.1% DMSO), or CDK8/19 kinase inhibitors or PROTACs for 20 days. Every 4 days, cells were counted using BioRAD TC20 Automated Cell Counter with trypan blue staining, and the same number of cells were passaged to a new T25 flask to propagate under the same treatment conditions.

Assay [6] concerns the target T1, CDK8. The assay is described as follows: CDK8 degradation in RPMI 8226 cells (Western blot). The arrangement: host or cells: RPMI 8226. Format: cell-based. The note with it: RPMI 8226, concentrations used in FIG. 14A.
Target sequence in this assay (P49336 whole entry): as the sequence (P49336 whole entry) above
Target sequence in this assay (P24863 whole entry partner): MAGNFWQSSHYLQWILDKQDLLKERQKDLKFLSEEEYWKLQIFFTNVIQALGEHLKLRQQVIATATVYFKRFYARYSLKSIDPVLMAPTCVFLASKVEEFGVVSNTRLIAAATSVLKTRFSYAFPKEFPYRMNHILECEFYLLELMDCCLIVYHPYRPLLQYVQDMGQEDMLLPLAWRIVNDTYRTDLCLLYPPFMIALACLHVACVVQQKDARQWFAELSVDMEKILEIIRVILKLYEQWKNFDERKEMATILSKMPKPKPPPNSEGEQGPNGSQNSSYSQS
In assay [7] the target is T2, CDK19 (Canis lupus familiaris, UniProt A0A8I3NZB9).
T2 construct: endogenous in cells; host or cells: Abrams (canine osteosarcoma)
T2 sequence (A0A8I3NZB9 1-502): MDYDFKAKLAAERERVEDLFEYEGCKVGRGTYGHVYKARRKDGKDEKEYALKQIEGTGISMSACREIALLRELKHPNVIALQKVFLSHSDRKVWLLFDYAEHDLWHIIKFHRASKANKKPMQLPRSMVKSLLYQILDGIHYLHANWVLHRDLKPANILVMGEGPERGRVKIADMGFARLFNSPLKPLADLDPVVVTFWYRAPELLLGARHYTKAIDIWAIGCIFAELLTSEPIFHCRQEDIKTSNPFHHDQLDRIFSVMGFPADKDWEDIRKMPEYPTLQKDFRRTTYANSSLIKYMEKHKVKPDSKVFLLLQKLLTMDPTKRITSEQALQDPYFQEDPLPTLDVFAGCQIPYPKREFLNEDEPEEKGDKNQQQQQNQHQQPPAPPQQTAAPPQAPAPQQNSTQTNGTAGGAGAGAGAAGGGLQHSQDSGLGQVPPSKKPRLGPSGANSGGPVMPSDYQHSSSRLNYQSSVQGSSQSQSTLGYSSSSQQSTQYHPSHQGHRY
As to the kind of experiment: CDK19 degradation in canine Abrams osteosarcoma cells. Format: cell-based. An excerpt: Both the extent and the kinetics of CDK8 degradation were similar between two cell lines, with the degradation reaching maximum at about 8 hrs of PROTAC treatment.

Assay [8] deals with KMS-12-BM cells. The assay is described as follows: Concentration dependence of KMS-12-BM growth inhibition (CCK-8 assay). Format: cell-based. The following applies: Homo sapiens, 96 h, over 4 days. As for the experimental part:
Concentration dependence of KMS-12-BM growth inhibition over 4 days was determined for BI-1347 CDK8/19 kinase inhibitor and IA7886 PROTAC using CCK-8 assay (FIG. 13B).
A general note: Tetrazolium dyes change colour on reduction, which living cells bring about.

Consider `O=C(CCCNc1cccc2c1C(=O)N(C1CCC(=O)NC1=O)C2=O)NCCCCCCCCCCC(=O)N1CCN(C(=O)Cn2cc(-c3ccc(-c4cncc5ccccc45)cc3)cn2)CC1` (stereo not drawn) [IA7886, 4-[[2-(2,6-dioxo-3-piperidyl)-1,3-dioxo-isoindolin-4-yl]amino]-N-[11-[4-[2-[4-[4-(4-isoquinolyl)phenyl]pyrazol-1-yl]acetyl]piperazin-1-yl]-11-oxo-undecyl]butanamide], for which the “CDK8 degradation (in words)” value in assay [1] was “efficiently degraded CDK8 and CDK19”; in assay [6] it was “efficiently degraded CDK8 in RPMI 8226 cells”. Besides, in assay [2], the “pS727 STAT1 and total STAT1 in tumors” value was “decreased in most of the tumors collected 2 hrs or 8 hrs after dosing”. In addition, the “CDK19 degradation (in words)” value in assay [3] was “efficiently degraded CDK8 and CDK19”; in assay [7], “induced CDK19 degradation in Abrams cells”. Further, the “growth inhibition, first two passages (14 days)” value in assay [4] is recorded as “had a stronger growth inhibition effect than the PROTAC IA7886”. The “growth rates in later passages” value in assay [4] (up to 53 days) is “growth rates of IA-7886 treated cells were decreasing”. Moreover, in assay [5], the “growth inhibition over 20 days, order of efficacy” value is “BI1347<IA7886<Senexin C<IA7843”. The molecule further registered an IC50 in assay [8] of 18 nM.
